From patent US9056865B2, “Pyridine-2-derivatives as smoothened receptor modulators” (Pfizer Inc., priority 2010, dated 2015) come the findings set out here.

Data set [1] is described as follows: Assessment of brain penetration in rats. In kind it is in vivo. As to conditions: rat. How it is done: Assessment of Brain Penetration of A-116 in Rats
An in vivo study in rats was conducted to assess the extent of brain penetration of A-116. In this study, approximately 10-week-old (250 grams body weight) Wistar rats were dosed once with 10 mg/kg of A-116 subcutaneously. Three rats per group were euthanized 1 hour, 4 hours, and 7 hours post dose. The plasma, the whole brain, and the cerebral spinal fluid (CSF) were collected to determine the tissue concentrations using HPLC-MS/MS. At 1 hour, 4 hours and 7 hours, the respective brain concentrations were 201±52 ng/g, 224±231 ng/g, and 28 ng/g of tissue. The total plasma concentrations were 2240±296 ng/mL, 2220±1780 ng/mL, and 287±75 ng/mL at 1 hour, 4 hours and 7 hours, respectively. To calculate the unbound plasma concentrations, the total plasma concentrations were multiplied by 0.067, a previously determined unbound fraction of rat plasma protein binding. The resulting unbound plasma concentrations were 150±20 ng/mL (1 hour), 149±119 ng/mL (4 hours), and 19.2±5.0 ng/mL (7 hours). The respective CSF concentrations were 64.4±12.0 ng/mL, 72.1±71.9 ng/mL, and 3.9±2.3 ng/mL at 1 hour, 4 hours, and 7 hours post dose. […] To determine the extent of brain penetration, a ratio of the CSF concentration to the unbound plasma concentration was calculated. At 1 hour, 4 hours, and 7 hours, the ratios were 0.43±0.03, 0.44±0.1, and 0.19±0.06, respectively.

For a further data set, the system named is Gli1. The data set can be described thus: Down regulation of Smo targeted gene Gli1 in the brain, primary medulloblastoma model. In kind it is in vivo. Particulars: Ptch1+/-p53-/- medulloblastoma mice, 30 mg/kg once daily for 4 days oral gavage, 6 hours post last dose. The method, then: Down Regulation of Smo Targeted Gene Gli1 in the Brain by A-116
In this study, 6-week-old Ptch1+/−p53−/− primary medulloblastoma mice (n=3 per group) were treated with 30 mg/kg of A-116 or vehicle (0.5% methylcellulose (MC)) once daily for 4 days by oral gavage. On day 4, at 6 hours post last dose, mice were euthanized and tumor bearing cerebella were removed. Total RNA was extracted from the tumor tissue together with the cerebella using the RNeasy Mini Kit (Qiagen). Subsequently, cDNA was synthesized from the RNA using High Capacity cDNA Reverse Transcription Kit (Applied Biosystems) according to the protocol provided by the vendor. Quantitative real-time PCR analysis of Smo targeted gene Gli1 expression level was performed using RT-PCR ABI Prism 7900 sequence detection system (Applied Biosystems).

Where two headings read alike, the source gives them in different places.

`Cc1cnc(-c2cc(N3CCN(C(=O)CCS(C)(=O)=O)CC3)ncc2Cl)c(C)c1` [Example A-116, 5′-chloro-3,5-dimethyl-2′-{4-[3-(methylsulfonyl)propanoyl]piperazin-1-yl}-2,4′-bipyridine]: the Kp at 1 h in data set [1] (Wistar, CSF / unbound plasma, subcutaneous, 10 mg/kg, 1 hour, read-out: ratio of the CSF concentration to the unbound plasma concentration) came out at 0.43 ± 0.03. Further, the Kp at 4 h in data set [1] (Wistar, CSF / unbound plasma, subcutaneous, 10 mg/kg, 4 hours, read-out: ratio of the CSF concentration to the unbound plasma concentration) is 0.44 ± 0.1. The Kp at 7 h in data set [1] (Wistar, CSF / unbound plasma, subcutaneous, 10 mg/kg, 7 hours, read-out: ratio of the CSF concentration to the unbound plasma concentration) turned out to be 0.19 ± 0.06. In addition, the Kp in data set [1] (Wistar, CSF / unbound plasma, subcutaneous, 10 mg/kg, rats, within 4 hours post dose, read-out: unbound compound in the plasma able to cross the blood brain barrier) was roughly 0.4. Moreover, the concentration at 1 h in data set [1] (Wistar, subcutaneous, 10 mg/kg, total plasma concentration multiplied by 0.067, 1 hour, read-out: unbound plasma concentration) amounted to 150 ± 20 ng/mL; in data set [1] (CSF, sc, Wistar rats, 10 mg/kg subcutaneously, 1 hour, read-out: CSF concentration), 64.4 ± 12 ng/mL; in data set [1] (brain, sc, Wistar rats, 10 mg/kg subcutaneously, 1 hour, read-out: brain concentration), 201 ± 52 ng/g; in data set [1] (plasma, sc, Wistar rats, 10 mg/kg subcutaneously, 1 hour, read-out: total plasma concentration) it was 2240 ± 296 ng/mL. The concentration at 4 h in data set [1] (Wistar, subcutaneous, 10 mg/kg, total plasma concentration multiplied by 0.067, 4 hours, read-out: unbound plasma concentration) worked out at 149 ± 119 ng/mL; in data set [1] (CSF, sc, Wistar rats, 10 mg/kg subcutaneously, 4 hours, read-out: CSF concentration) it was 72.1 ± 71.9 ng/mL; in data set [1] (brain, sc, Wistar rats, 10 mg/kg subcutaneously, 4 hours, read-out: brain concentration), 224 ± 231 ng/g; in data set [1] (plasma, sc, Wistar rats, 10 mg/kg subcutaneously, 4 hours, read-out: total plasma concentration) it was 2220 ± 1780 ng/mL. Moreover, the concentration at 7 h in data set [1] (Wistar, subcutaneous, 10 mg/kg, total plasma concentration multiplied by 0.067, 7 hours, read-out: unbound plasma concentration) came out at 19.2 ± 5 ng/mL; in data set [1] (CSF, sc, Wistar rats, 10 mg/kg subcutaneously, 7 hours, read-out: CSF concentration), 3.9 ± 2.3 ng/mL; in data set [1] (brain, sc, Wistar rats, 10 mg/kg subcutaneously, 7 hours, read-out: brain concentration) it was 28 ng/g; in data set [1] (plasma, sc, Wistar rats, 10 mg/kg subcutaneously, 7 hours, read-out: total plasma concentration) it was 287 ± 75 ng/mL. The “Gli1 level, % of vehicle control” value with Gli1 was found to be 4.5±0.4%.
